Patent US11208399B2, “NLRP3 inflammasome inhibitors” (Novartis AG, priority 2019, dated 2021)
Counter-ions that a name gives are not always drawn.

What follows are compounds tested on NF-kB-dependent TNF-α secretion (assay: TNF-α secretion assay in THP-1 cells (counter screen, HTRF)). Conditions: Homo sapiens, Pam3CSK4-stimulated, 3 hours.
Type: cell-based
Procedure: Monocytic THP-1 cells were maintained according to providers' instructions in RPMI media as described above. […] Experimental compounds were prepared and added as described above. TNF-α secretion was triggered by the addition of either 1 μg/mL LPS (Sigma, #L4391) or 100 ng/mL Pam3CSK4 (Invivogen, #tlrl-pms) depending on the experiment, and cells were incubated for 3 hours. 10 μL supernatant was removed, and TNF-α levels were monitored using an HTRF assay (CisBio, #62TNFPEC) according to manufacturers' instructions. Viability was monitored as described above.
IC50 values were calculated from the plot of percentage of inhibition versus the inhibitor concentration by a logistics fit according to: y=A2+(A1−A2)/(1+(x/IC50)^p) where y is the %-inhibition at the inhibitor concentration, x. A1 is the lowest inhibition value, i.e. 0%, and A2 the maximum inhibition value, i.e. 100%. The exponent, p, is the Hill coefficient. The curve fitting was conducted with an internally developed software suite. […]

`Cc1cc(C(F)(F)F)cc(O)c1-c1ccc(N[C@H]2CC[C@H]3CC[C@@H]2N3C)nn1` (single isomer, unassigned) [Ex 85a] and `Cc1cc(C(F)(F)F)cc(O)c1-c1ccc(N[C@H]2CC[C@H]3CC[C@@H]2N3CCO)nn1` (single isomer, unassigned) [Ex 86a] cannot be ordered by IC50: > 100 µM for the first, > 100 µM for the second.

`CCN1CCC[C@@H](Nc2ccc(-c3c(C)cc(C(F)(F)F)cc3O)nn2)C1` [Ex 1, (R)-2-(6-((1-Ethylpiperidin-3-yl)amino)pyridazin-3-yl)-3-methyl-5-(trifluoromethyl)phenol] and `Cc1cc(C(F)(F)F)cc(O)c1-c1ccc(N[C@@H]2CCCN(CCO)C2)nn1` [Ex 6, (R)-2-(6-((1-(2-Hydroxyethyl)piperidin-3-yl)amino)pyridazin-3-yl)-3-methyl-5-(trifluoromethyl)phenol] cannot be ordered by IC50: > 100 µM for the first, > 100 µM for the second.

`Cc1cc(N[C@@H]2CCCN(C)C2)nnc1-c1ccc(C(F)(F)F)cc1O` [Ex 4, (R)-2-(4-Methyl-6-((1-methylpiperidin-3-yl)amino)pyridazin-3-yl)-5-(trifluoromethyl)phenol] and `Cc1ccc(-c2nnc(N[C@@H]3CCCN(C)C3)cc2C(F)(F)F)c(O)c1` [Ex 50, (R)-5-Methyl-2-(6-((1-methylpiperidin-3-yl)amino)-4-(trifluoromethyl)pyridazin-3-yl)phenol] cannot be ordered by IC50: > 100 µM for the first, > 100 µM for the second.

`Cc1cc(-c2c(C)cc(C(F)(F)F)cc2O)nnc1N[C@@H]1CCCN(C)C1` [Ex 5, (R)-3-Methyl-2-(5-methyl-6-((1-methylpiperidin-3-yl)amino)pyridazin-3-yl)-5-(trifluoromethyl)phenol] and `Cc1cc(-c2c(C)cc(C(F)(F)F)cc2O)nnc1N[C@@H]1CCCN(CCO)C1` [Ex 13, (R)-2-(6-((1-(2-Hydroxyethyl)piperidin-3-yl)amino)-5-methylpyridazin-3-yl)-3-methyl-5-(trifluoromethyl)phenol] cannot be ordered by IC50: > 33 µM for the first, > 100 µM for the second.

`Cc1cc(C(F)(F)F)cc(O)c1-c1ccc(NC2CCCN(C(C)C)C2)nn1` (stereo not drawn) [Ex 7, 2-(6-((1-Isopropylpiperidin-3-yl)amino)pyridazin-3-yl)-3-methyl-5-(trifluoromethyl)phenol] and `Cc1cc(C(F)(F)F)cc(O)c1-c1ccc(N[C@@H]2CCCN(C)C2)nn1` [Ex 12, (R)-3-Methyl-2-(6-((1-methylpiperidin-3-yl)amino)pyridazin-3-yl)-5-(trifluoromethyl)phenol] cannot be ordered by IC50: > 100 µM for the first, > 100 µM for the second.

`Cc1cc(C(F)(F)F)cc(O)c1-c1ccc(NC2CNCC(F)(F)C2)nn1` (stereo not drawn) [Ex 9, 2-(6-((5,5-Difluoropiperidin-3-yl)amino)pyridazin-3-yl)-3-methyl-5-(trifluoromethyl)phenol] and `Cc1cc(C(F)(F)F)cc(O)c1-c1ccc(N[C@H]2CCCNC2)nn1` [Ex 33, (S)-3-Methyl-2-(6-(piperidin-3-ylamino)pyridazin-3-yl)-5-(trifluoromethyl)phenol] cannot be ordered by IC50: > 100 µM for the first, > 100 µM for the second.

`CCN1CCC[C@@H](Nc2nnc(-c3c(C)cc(C(F)(F)F)cc3O)cc2C#N)C1` [Ex 11, (R)-3-((1-Ethylpiperidin-3-yl)amino)-6-(2-hydroxy-6-methyl-4-(trifluoromethyl)phenyl)pyridazine-4-carbonitrile] and `Cc1cc(C(F)(F)F)cc(O)c1-c1cc(C(F)(F)F)c(N[C@@H]2CCCN(C)C2)nn1` [Ex 64, (R)-3-Methyl-2-(6-((1-methylpiperidin-3-yl)amino)-5-(trifluoromethyl)pyridazin-3-yl)-5-(trifluoromethyl)phenol] cannot be ordered by IC50: > 100 µM for the first, > 100 µM for the second.

`Cc1cc(C(F)(F)F)cc(O)c1-c1ccc(N[C@H]2CCN(C)C2)nn1` [Ex 18, (S)-3-Methyl-2-(6-((1-methylpyrrolidin-3-yl)amino)pyridazin-3-yl)-5-(trifluoromethyl)phenol] and `Cc1cc(C(F)(F)F)cc(O)c1-c1ccc(N[C@H]2CCCN(C)C2)nn1` [Ex 36, (S)-3-Methyl-2-(6-((1-methylpiperidin-3-yl)amino)pyridazin-3-yl)-5-(trifluoromethyl)phenol] cannot be ordered by IC50: > 100 µM for the first, > 100 µM for the second.

`Oc1cc(Cl)cc(Cl)c1-c1ccc(NCC(F)(F)F)nn1` [Ex 27, 3,5-Dichloro-2-(6-((2,2,2-trifluoroethyl)amino)pyridazin-3-yl)phenol] and `Oc1cc(Cl)cc(Cl)c1-c1ccc(NC2CC2)nn1` [Ex 44, 3,5-Dichloro-2-(6-(cyclopropylamino)pyridazin-3-yl)phenol] cannot be ordered by IC50: > 100 µM for the first, > 100 µM for the second.

`CN1CCC[C@@H](Nc2ccc(-c3c(O)cc(C(F)(F)F)cc3C(F)(F)F)nn2)C1` [Ex 39, (R)-2-(6-((1-Methylpiperidin-3-yl)amino)pyridazin-3-yl)-3,5-bis(trifluoromethyl)phenol] and `CN1CCC[C@@H](Nc2ccc(-c3c(O)cc(C(F)(F)F)cc3Cl)nn2)C1` [Ex 49, (R)-3-Chloro-2-(6-((1-methylpiperidin-3-yl)amino)pyridazin-3-yl)-5-(trifluoromethyl)phenol] cannot be ordered by IC50: > 100 µM for the first, > 100 µM for the second.

`Cc1cc(C(F)(F)F)cc(O)c1-c1nnc(N[C@@H]2CCCN(C)C2)c(C)c1C` [Ex 40, 2-(4,5-Dimethyl-6-(((R)-1-methylpiperidin-3-yl)amino)pyridazin-3-yl)-3-methyl-5-(trifluoromethyl)phenol TFA-salt] and `Cc1c(N[C@@H]2CCCN(C)C2)nnc(-c2ccc(C(F)(F)F)cc2O)c1C` [Ex 48, (R)-2-(4,5-Dimethyl-6-((1-methylpiperidin-3-yl)amino)pyridazin-3-yl)-5-(trifluoromethyl)phenol] cannot be ordered by IC50: > 33 µM for the first, > 100 µM for the second.

`Cc1cc(C(F)(F)F)cc(O)c1-c1ccc(O[C@@H]2CCCN(C)C2)nn1` [Ex 42, (R)-3-Methyl-2-(6-((1-methylpiperidin-3-yl)oxy)pyridazin-3-yl)-5-(trifluoromethyl)phenol] and `Cc1cc(-c2ccc(C(F)(F)F)cc2O)nnc1N[C@@H]1CCCN(C)C1` [Ex 65, (R)-2-(5-Methyl-6-((1-methylpiperidin-3-yl)amino)pyridazin-3-yl)-5-(trifluoromethyl)phenol] cannot be ordered by IC50: > 100 µM for the first, > 33 µM for the second.

`CN1CCC[C@@H](Nc2ccc(-c3c(O)cc(Cl)cc3Cl)nn2)C1` [Ex 45, (R)-3,5-Dichloro-2-(6-((1-methylpiperidin-3-yl)amino)pyridazin-3-yl)phenol TFA-salt] and `CN1CCC[C@@H](Nc2ccc(-c3c(O)cc(Cl)cc3C(F)(F)F)nn2)C1` [Ex 51, (R)-5-Chloro-2-(6-((1-methylpiperidin-3-yl)amino)pyridazin-3-yl)-3-(trifluoromethyl)phenol] cannot be ordered by IC50: > 100 µM for the first, > 100 µM for the second.

`Cc1cc(C(F)(F)F)cc(O)c1-c1ccc(Nc2cccnc2)nn1` [Ex 46, 3-Methyl-2-(6-(pyridin-3-ylamino)pyridazin-3-yl)-5-(trifluoromethyl)phenol] and `Cc1cc(C(F)(F)F)cc(O)c1-c1ccc(NC2CCC(C(F)(F)F)NC2)nn1` (stereo not drawn) [Ex 62, 3-Methyl-5-(trifluoromethyl)-2-(6-((6-(trifluoromethyl)piperidin-3-yl)amino)pyridazin-3-yl)phenol] cannot be ordered by IC50: > 100 µM for the first, > 100 µM for the second.

`Cc1cc(C)c(-c2ccc(N[C@@H]3CCCN(C)C3)nn2)c(O)c1` [Ex 47, (R)-3,5-Dimethyl-2-(6-((1-methylpiperidin-3-yl)amino)pyridazin-3-yl)phenol] and `CN1CCC[C@@H](Nc2cc(C(F)(F)F)c(-c3ccc(C(F)(F)F)cc3O)nn2)C1` [Ex 53, (R)-2-(6-((1-Methylpiperidin-3-yl)amino)-4-(trifluoromethyl)pyridazin-3-yl)-5-(trifluoromethyl)phenol] cannot be ordered by IC50: > 100 µM for the first, > 33 µM for the second.
